From patent US20080009418A1, “Selective Inhibitors” (Alchemia LTD., priority 2004, published 2008)

Key:
[1] = biological target: T1, Human melanocortin (MC5) (Homo sapiens, UniProt P33032); assay: Radioligand binding, human melanocortin MC5 membranes, FlashPlate, [125I]-NDP-αMSH; conditions: compound at 10 μM, [125I]-NDP-αMSH
T1 construct: purchased Perkin Elmer Biosignal
In short: (§1)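 Cloned human receptor membranes were coated onto FlashPlate wells and incubated with radioligand and compound (added from a 0.5 mM DMSO daughter plate) for 1 hour at room temperature in the dark. Scintillation counting gave percent inhibition, with DMSO defining total and reference ligand defining non-specific binding.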

[2] = biological target: T2, Human neuropeptide Y (NPY-Y1) (Homo sapiens, UniProt P25929); assay: Radioligand binding, human neuropeptide Y NPY-Y1 membranes, FlashPlate, [125I]-PYY; conditions: compound at 10 μM, [125I]-PYY
T2 construct: purchased Perkin Elmer Biosignal
T2 sequence (P25929 1-384): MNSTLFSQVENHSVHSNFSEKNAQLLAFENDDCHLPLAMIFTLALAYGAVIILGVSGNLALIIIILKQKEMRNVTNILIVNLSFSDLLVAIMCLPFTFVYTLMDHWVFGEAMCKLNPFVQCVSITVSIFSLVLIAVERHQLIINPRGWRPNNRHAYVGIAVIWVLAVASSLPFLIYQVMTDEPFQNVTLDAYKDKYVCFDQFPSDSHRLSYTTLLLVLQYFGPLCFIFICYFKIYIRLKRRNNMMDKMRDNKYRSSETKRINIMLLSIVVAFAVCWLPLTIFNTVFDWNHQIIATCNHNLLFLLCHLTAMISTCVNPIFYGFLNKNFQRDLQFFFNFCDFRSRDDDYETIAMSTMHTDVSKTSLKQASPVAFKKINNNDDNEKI
In short: as §1

[3] = biological target: T3, Human Melanocortin (MC3) (Homo sapiens, UniProt P41968); assay: Radioligand binding, human melanocortin MC3 membranes, FlashPlate, [125I]-NDP-αMSH; conditions: compound at 10 μM, [125I]-NDP-αMSH
T3 construct: purchased Perkin Elmer Biosignal
In short: as §1

[4] = biological target: T4, Human μ-opioid (MOP) (Homo sapiens, UniProt P35372); assay: Radioligand binding, human μ-opioid (MOP) membranes, FlashPlate, [3H]-Naloxone; conditions: compound at 10 μM, [3H]-Naloxone
T4 construct: purchased Perkin Elmer Biosignal
In short: as §1

[5] = biological target: T5, Human κ-Opioid (KOP) (Homo sapiens, UniProt P41145); assay: Radioligand binding, human κ-opioid (KOP) membranes, filtration, [3H]-Diprenorphine; conditions: compound at 10 μM, [3H]-Diprenorphine
T5 construct: purchased Perkin Elmer Biosignal
In short: (§2)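 Filtration binding on cloned human receptor membranes (1 Unit/well), [125I]-Substance P for NK1 and [3H]-Diprenorphine for KOP, 1 h at room temperature. Filters PEI-presoaked, washed with cold 50 mM Tris-HCl pH 7.4, counted by scintillation; percent inhibition calculated, reference ligand defining non-specific binding.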

[6] = biological target: T6, Human opioid (ORL1) (Homo sapiens, UniProt P41146); assay: Radioligand binding, human opioid ORL1 membranes, FlashPlate, [125I]-Nociceptin; conditions: compound at 10 μM, [125I]-Nociceptin
T6 construct: purchased Perkin Elmer Biosignal
In short: as §1

[7] = biological target: T7, Human Melanocortin (MC4) (Homo sapiens, UniProt P32245); assay: Radioligand binding, human melanocortin MC4 membranes, FlashPlate, [125I]-NDP-αMSH; conditions: compound at 10 μM, [125I]-NDP-αMSH
T7 construct: purchased Perkin Elmer Biosignal
In short: as §1

[8] = biological target: T8, Human δ-opioid (DOP) (Homo sapiens, UniProt P41143); assay: Radioligand binding, human δ-opioid (DOP) membranes, FlashPlate, [3H]-Bremazocine; conditions: compound at 10 μM, [3H]-Bremazocine
T8 construct: purchased Perkin Elmer Biosignal
In short: as §1

[9] = biological target: T9, Mouse urotensin (mUR2) (Mus musculus, UniProt Q8VIH9); assay: Radioligand binding, mouse urotensin mUR2 membranes, FlashPlate, [125I]-Urotensin II; conditions: compound at 10 μM, [125I]-Urotensin II
T9 construct: purchased Perkin Elmer Biosignal
T9 sequence (Q8VIH9 1-385): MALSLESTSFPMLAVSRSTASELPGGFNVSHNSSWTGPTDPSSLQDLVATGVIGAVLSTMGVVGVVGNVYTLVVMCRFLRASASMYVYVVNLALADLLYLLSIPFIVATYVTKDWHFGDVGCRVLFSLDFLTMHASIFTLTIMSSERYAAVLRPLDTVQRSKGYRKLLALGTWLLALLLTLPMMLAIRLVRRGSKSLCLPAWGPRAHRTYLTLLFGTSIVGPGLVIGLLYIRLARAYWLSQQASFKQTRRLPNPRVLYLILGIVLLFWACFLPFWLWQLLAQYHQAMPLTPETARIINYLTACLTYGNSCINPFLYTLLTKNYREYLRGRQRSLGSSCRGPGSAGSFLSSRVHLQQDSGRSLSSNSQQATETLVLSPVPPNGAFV
In short: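 Cloned mouse urotensin (mUR2) receptor membranes from Perkin Elmer Biosignal were immobilized in FlashPlate microplates using a proprietary coating. Each well got 19.5 μl buffer, then 0.5 μl of DMSO, reference ligand, or compound. Adding 5 μl of [125I]-Urotensin II, diluted to 5× final concentration in binding buffer, started binding. Plates were sealed with TopSeal-A and incubated 1 hour at room temperature in the dark. Wells were counted for 30 seconds each on a TopCount after a 60-second delay, and percentage inhibition was calculated.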

[10] = biological target: T10, Human neurokinin (NK1) (Homo sapiens, UniProt P25103); assay: Radioligand binding, human neurokinin NK1 membranes, filtration, [125I]-Substance P; conditions: compound at 10 μM, [125I]-Substance P
T10 construct: purchased Perkin Elmer Biosignal
In short: as §2

[11] = biological target: T11, Human melanin-concentrating hormone (MCH1) (Homo sapiens, UniProt Q99705); assay: Radioligand binding, human melanin-concentrating hormone MCH1 membranes, FlashPlate, [125I]-S36057; conditions: compound at 10 μM
T11 construct: purchased Perkin Elmer Biosignal
In short: as §1

[12] = [125I]-S36057, human MCH1 membranes

T8 sequence (P41143 whole entry): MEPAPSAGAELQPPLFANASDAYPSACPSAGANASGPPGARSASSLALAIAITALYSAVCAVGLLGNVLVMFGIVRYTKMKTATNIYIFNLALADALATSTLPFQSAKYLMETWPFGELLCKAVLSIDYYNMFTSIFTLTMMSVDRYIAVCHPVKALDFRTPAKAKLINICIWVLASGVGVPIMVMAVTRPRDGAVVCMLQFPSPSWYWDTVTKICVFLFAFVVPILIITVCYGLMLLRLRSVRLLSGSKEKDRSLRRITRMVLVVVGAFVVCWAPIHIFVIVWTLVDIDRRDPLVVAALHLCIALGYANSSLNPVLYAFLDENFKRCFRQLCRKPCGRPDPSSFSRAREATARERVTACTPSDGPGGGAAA
T5 sequence (P41145 whole entry): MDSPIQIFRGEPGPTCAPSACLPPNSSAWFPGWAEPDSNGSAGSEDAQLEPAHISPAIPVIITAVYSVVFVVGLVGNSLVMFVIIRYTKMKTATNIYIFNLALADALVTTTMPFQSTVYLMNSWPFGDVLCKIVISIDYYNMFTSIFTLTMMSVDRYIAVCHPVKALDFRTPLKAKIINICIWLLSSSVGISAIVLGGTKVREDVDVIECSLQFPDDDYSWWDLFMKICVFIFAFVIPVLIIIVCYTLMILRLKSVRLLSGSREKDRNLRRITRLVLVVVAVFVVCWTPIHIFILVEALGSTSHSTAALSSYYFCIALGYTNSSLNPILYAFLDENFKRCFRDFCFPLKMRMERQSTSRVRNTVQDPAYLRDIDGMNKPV
T4 sequence (P35372 whole entry): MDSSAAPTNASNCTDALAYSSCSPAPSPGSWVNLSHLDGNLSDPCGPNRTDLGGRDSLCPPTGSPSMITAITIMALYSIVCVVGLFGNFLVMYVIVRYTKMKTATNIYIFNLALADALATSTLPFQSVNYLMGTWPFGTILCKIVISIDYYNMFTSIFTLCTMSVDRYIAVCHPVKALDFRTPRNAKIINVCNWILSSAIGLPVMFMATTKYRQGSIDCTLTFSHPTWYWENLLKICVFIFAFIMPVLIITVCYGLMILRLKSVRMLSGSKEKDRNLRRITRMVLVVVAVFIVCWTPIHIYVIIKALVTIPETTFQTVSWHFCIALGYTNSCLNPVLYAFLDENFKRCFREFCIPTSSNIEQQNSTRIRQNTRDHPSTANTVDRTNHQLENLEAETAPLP
T6 sequence (P41146 whole entry): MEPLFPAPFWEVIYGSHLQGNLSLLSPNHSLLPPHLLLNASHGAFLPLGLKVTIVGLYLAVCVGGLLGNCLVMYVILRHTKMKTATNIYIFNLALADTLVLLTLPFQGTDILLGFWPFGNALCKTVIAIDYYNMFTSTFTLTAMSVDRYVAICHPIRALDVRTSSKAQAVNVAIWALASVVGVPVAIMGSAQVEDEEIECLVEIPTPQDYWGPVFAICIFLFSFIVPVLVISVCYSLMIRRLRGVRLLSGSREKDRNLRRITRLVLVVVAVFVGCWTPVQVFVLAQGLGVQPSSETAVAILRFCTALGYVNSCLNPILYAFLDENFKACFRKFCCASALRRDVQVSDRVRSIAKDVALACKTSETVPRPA
T1 sequence (P33032 whole entry): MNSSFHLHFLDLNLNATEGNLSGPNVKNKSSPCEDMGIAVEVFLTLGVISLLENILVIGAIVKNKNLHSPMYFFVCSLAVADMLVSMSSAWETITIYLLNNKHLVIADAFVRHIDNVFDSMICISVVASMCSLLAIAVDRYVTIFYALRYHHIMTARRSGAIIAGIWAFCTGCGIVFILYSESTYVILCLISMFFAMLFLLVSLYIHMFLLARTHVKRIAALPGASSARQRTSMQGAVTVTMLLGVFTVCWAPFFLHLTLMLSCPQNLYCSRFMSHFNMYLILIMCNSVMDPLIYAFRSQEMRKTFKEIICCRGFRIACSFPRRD
T11 sequence (Q99705 whole entry): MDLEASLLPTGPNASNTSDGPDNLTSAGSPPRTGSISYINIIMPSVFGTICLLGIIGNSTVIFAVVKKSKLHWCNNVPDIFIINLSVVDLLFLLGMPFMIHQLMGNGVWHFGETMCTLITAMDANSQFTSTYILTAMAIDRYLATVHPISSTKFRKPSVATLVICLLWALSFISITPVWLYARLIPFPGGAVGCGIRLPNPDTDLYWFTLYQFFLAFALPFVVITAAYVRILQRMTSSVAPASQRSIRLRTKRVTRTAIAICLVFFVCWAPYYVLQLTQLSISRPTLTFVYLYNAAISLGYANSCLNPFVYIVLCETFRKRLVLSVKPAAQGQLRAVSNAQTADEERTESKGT
T7 sequence (P32245 whole entry): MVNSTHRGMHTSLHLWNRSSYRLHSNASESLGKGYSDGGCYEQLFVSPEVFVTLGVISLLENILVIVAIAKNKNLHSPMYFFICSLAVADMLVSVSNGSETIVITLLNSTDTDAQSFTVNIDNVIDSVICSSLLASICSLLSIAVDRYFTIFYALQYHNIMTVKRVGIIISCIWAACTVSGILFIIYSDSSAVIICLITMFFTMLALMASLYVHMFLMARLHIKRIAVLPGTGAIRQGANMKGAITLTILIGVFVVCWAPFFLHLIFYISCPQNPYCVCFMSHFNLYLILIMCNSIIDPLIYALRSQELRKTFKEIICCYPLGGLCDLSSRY
T10 sequence (P25103 whole entry): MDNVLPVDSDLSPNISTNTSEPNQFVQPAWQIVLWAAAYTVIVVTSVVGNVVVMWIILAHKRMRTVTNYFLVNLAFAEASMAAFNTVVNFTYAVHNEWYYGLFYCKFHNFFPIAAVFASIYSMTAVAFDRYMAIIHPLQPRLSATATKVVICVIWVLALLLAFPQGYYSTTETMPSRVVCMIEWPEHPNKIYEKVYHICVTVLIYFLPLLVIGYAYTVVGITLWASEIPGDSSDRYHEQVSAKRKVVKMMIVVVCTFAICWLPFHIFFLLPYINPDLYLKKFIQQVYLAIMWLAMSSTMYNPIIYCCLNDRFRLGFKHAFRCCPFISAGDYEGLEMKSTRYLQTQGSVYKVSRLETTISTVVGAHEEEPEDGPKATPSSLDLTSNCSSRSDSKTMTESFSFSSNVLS
T3 sequence (P41968 whole entry): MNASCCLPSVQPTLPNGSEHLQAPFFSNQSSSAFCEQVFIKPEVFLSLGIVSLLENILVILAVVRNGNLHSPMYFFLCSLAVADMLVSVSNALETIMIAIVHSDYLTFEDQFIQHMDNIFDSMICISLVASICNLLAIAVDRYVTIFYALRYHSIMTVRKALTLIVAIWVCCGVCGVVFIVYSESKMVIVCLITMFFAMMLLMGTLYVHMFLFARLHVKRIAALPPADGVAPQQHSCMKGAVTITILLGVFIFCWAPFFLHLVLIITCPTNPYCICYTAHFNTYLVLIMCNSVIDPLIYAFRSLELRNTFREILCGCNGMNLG

`N=C(N)NCC(=O)NC1C(OCc2ccc(Cl)cc2)OC(COCc2ccccc2)C(O)C1OCc1ccc(Cl)cc1` (stereo not shown) [compound 418] was tested, and the “A5: inhibition of radioligand binding” value ([1]; human MC5 membranes) was “+ (“+” indicates greater than 50% inhibition at 10 μM)”, the “A9: inhibition of radioligand binding” value ([2]; human NPY-Y1 membranes) was “− (“−” indicates less than 50% inhibition at 10 μM)” and the “A3: inhibition of radioligand binding” value ([3]; human MC3 membranes) was “+ (“+” indicates greater than 50% inhibition at 10 μM)”. For the same compound, the “A7: inhibition of radioligand binding” value ([4]; human MOP membranes) was “− (“−” indicates less than 50% inhibition at 10 μM)”, the “A2: inhibition of radioligand binding” value ([5]; human KOP membranes) was “− (“−” indicates less than 50% inhibition at 10 μM)” and the “A10: inhibition of radioligand binding” value ([6]; human ORL1 membranes) was “+ (“+” indicates greater than 50% inhibition at 10 μM)”. For the same compound, the “A4: inhibition of radioligand binding” value ([7]; human MC4 membranes) was “+ (“+” indicates greater than 50% inhibition at 10 μM)”, the “A1: inhibition of radioligand binding” value ([8]; human DOP membranes) was “− (“−” indicates less than 50% inhibition at 10 μM)” and the “A11: inhibition of radioligand binding” value ([9]; mouse mUR2 membranes) was “− (“−” indicates less than 50% inhibition at 10 μM)”. For the same compound, the “A8: inhibition of radioligand binding” value ([10]; human NK1 membranes) was “+ (“+” indicates greater than 50% inhibition at 10 μM)” and the “A6: inhibition of radioligand binding” value [11, 12] was “+ (“+” indicates greater than 50% inhibition at 10 μM)”.

With `NCCC(=O)NC1C(OCc2ccc3ccccc3c2)OC(COCc2ccccc2)C(O)C1OCc1ccc2ccccc2c1` (stereo not shown) [compound 385] the “A5: inhibition of radioligand binding” value ([1]; human MC5 membranes) was “+ (“+” indicates greater than 50% inhibition at 10 μM)”, the “A9: inhibition of radioligand binding” value ([2]; human NPY-Y1 membranes) was “− (“−” indicates less than 50% inhibition at 10 μM)” and the “A3: inhibition of radioligand binding” value ([3]; human MC3 membranes) was “+ (“+” indicates greater than 50% inhibition at 10 μM)”. For the same compound, the “A7: inhibition of radioligand binding” value ([4]; human MOP membranes) was “− (“−” indicates less than 50% inhibition at 10 μM)”, the “A2: inhibition of radioligand binding” value ([5]; human KOP membranes) was “− (“−” indicates less than 50% inhibition at 10 μM)” and the “A10: inhibition of radioligand binding” value ([6]; human ORL1 membranes) was “− (“−” indicates less than 50% inhibition at 10 μM)”. The “A4: inhibition of radioligand binding” value ([7]; human MC4 membranes) was “+ (“+” indicates greater than 50% inhibition at 10 μM)”, the “A1: inhibition of radioligand binding” value ([8]; human DOP membranes) was “− (“−” indicates less than 50% inhibition at 10 μM)” and the “A11: inhibition of radioligand binding” value ([9]; mouse mUR2 membranes) was “− (“−” indicates less than 50% inhibition at 10 μM)”. For the same compound, the “A8: inhibition of radioligand binding” value ([10]; human NK1 membranes) was “+ (“+” indicates greater than 50% inhibition at 10 μM)” and the “A6: inhibition of radioligand binding” value [11, 12] was “+ (“+” indicates greater than 50% inhibition at 10 μM)”.

With `COCC1OC(OCc2ccc(Cl)cc2)C(NC(=O)CN)C(OCc2ccc3ccccc3c2)C1O` (stereo not shown) [compound 208] the “A5: inhibition of radioligand binding” value ([1]; FlashPlate) was “+ (“+” indicates greater than 50% inhibition at 10 μM)”, the “A9: inhibition of radioligand binding” value ([2]; FlashPlate) was “− (“−” indicates less than 50% inhibition at 10 μM)” and the “A3: inhibition of radioligand binding” value ([3]; FlashPlate) was “− (“−” indicates less than 50% inhibition at 10 μM)”. The “A7: inhibition of radioligand binding” value ([4]; FlashPlate) was “− (“−” indicates less than 50% inhibition at 10 μM)”, the “A2: inhibition of radioligand binding” value ([5]; filtration) was “− (“−” indicates less than 50% inhibition at 10 μM)” and the “A10: inhibition of radioligand binding” value ([6]; FlashPlate) was “− (“−” indicates less than 50% inhibition at 10 μM)”. The “A4: inhibition of radioligand binding” value ([7]; FlashPlate) was “− (“−” indicates less than 50% inhibition at 10 μM)”, the “A1: inhibition of radioligand binding” value ([8]; FlashPlate) was “− (“−” indicates less than 50% inhibition at 10 μM)” and the “A11: inhibition of radioligand binding” value ([9]; FlashPlate) was “− (“−” indicates less than 50% inhibition at 10 μM)”. For the same compound, the “A8: inhibition of radioligand binding” value ([10]; filtration) was “+ (“+” indicates greater than 50% inhibition at 10 μM)” and the “A6: inhibition of radioligand binding” value ([11]; [125I]-S36057, FlashPlate) was “− (“−” indicates less than 50% inhibition at 10 μM)”.

With `NCCC(=O)NC1C(OCc2ccc(Cl)cc2)OC(COCc2ccc(Cl)cc2)C(O)C1OCc1ccc2ccccc2c1` (single isomer, unassigned) [compound 482] the “A5: inhibition of radioligand binding, human melanocortin (MC5)” value [1] was “+ (“+” indicates greater than 50% inhibition at 10 μM)”, the “A9: inhibition of radioligand binding, human neuropeptide Y (NPY-Y1)” value [2] was “− (“−” indicates less than 50% inhibition at 10 μM)” and the “A3: inhibition of radioligand binding, human melanocortin (MC3)” value [3] was “+ (“+” indicates greater than 50% inhibition at 10 μM)”. For the same compound, the “A7: inhibition of radioligand binding, human μ-opioid (MOP)” value [4] was “− (“−” indicates less than 50% inhibition at 10 μM)”, the “A2: inhibition of radioligand binding, human κ-opioid (KOP)” value ([5]; 10 µM) was “− (“−” indicates less than 50% inhibition at 10 μM)” and the “A10: inhibition of radioligand binding, human opioid (ORL1)” value [6] was “+ (“+” indicates greater than 50% inhibition at 10 μM)”. The “A4: inhibition of radioligand binding, human melanocortin (MC4)” value [7] was “+ (“+” indicates greater than 50% inhibition at 10 μM)”, the “A1: inhibition of radioligand binding, human δ-opioid (DOP)” value [8] was “− (“−” indicates less than 50% inhibition at 10 μM)” and the “A11: inhibition of radioligand binding, mouse urotensin (mUR2)” value [9] was “− (“−” indicates less than 50% inhibition at 10 μM)”. For the same compound, the “A8: inhibition of radioligand binding, human neurokinin (NK1)” value [10] was “+ (“+” indicates greater than 50% inhibition at 10 μM)” and the “A6: inhibition of radioligand binding, human melanin-concentrating hormone (MCH1)” value ([11]; [125I]-S36057) was “+ (“+” indicates greater than 50% inhibition at 10 μM)”.

With `COCC1OC(OCc2ccccc2)C(NC(=O)CCN)C(OCc2ccc(Cl)cc2)C1O` (stereo not shown) [compound 178] the “A5 radioligand binding, percentage inhibition” value [1] was “+ (“+” indicates greater than 50% inhibition at 10 μM)”, the “A9 radioligand binding, percentage inhibition” value [2] was “− (“−” indicates less than 50% inhibition at 10 μM)” and the “A3 radioligand binding, percentage inhibition” value [3] was “− (“−” indicates less than 50% inhibition at 10 μM)”. The “A7 radioligand binding, percentage inhibition” value [4] was “− (“−” indicates less than 50% inhibition at 10 μM)”, the “A2 radioligand binding, percentage inhibition” value [5] was “− (“−” indicates less than 50% inhibition at 10 μM)” and the “A10 radioligand binding, percentage inhibition” value [6] was “− (“−” indicates less than 50% inhibition at 10 μM)”. The “A4 radioligand binding, percentage inhibition” value [7] was “− (“−” indicates less than 50% inhibition at 10 μM)”, the “A1 radioligand binding, percentage inhibition” value [8] was “− (“−” indicates less than 50% inhibition at 10 μM)” and the “A11 radioligand binding, percentage inhibition” value [9] was “− (“−” indicates less than 50% inhibition at 10 μM)”. The “A8 radioligand binding, percentage inhibition” value [10] was “+ (“+” indicates greater than 50% inhibition at 10 μM)” and the “A6 radioligand binding, percentage inhibition” value ([11]; [125I]-S36057) was “− (“−” indicates less than 50% inhibition at 10 μM)”.
